# Measured values: patent US20240002397A1, “3-AMINO PYRROLIDINE AND PIPERIDINE MACROCYCLIC OREXIN RECEPTOR AGONISTS” (Merck Sharp & Dohme LLC, priority 2020, published 2024)
# Molecular target: T1, human OX2R (Homo sapiens, UniProt O43614)
# T1 sequence (O43614 1-444): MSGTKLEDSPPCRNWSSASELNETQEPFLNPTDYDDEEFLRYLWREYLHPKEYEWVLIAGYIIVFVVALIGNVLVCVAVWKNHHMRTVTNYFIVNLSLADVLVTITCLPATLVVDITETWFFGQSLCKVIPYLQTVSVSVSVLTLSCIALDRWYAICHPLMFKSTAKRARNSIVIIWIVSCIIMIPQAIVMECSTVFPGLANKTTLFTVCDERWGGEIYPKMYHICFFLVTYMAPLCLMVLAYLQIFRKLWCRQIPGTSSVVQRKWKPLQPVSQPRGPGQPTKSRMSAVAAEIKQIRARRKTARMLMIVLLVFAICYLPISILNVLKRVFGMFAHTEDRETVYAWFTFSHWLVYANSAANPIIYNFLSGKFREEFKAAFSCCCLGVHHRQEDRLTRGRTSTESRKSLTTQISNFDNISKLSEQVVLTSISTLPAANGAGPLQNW
# Assay: IPOne (IP-1) orexin receptor agonist assay in CHO cells expressing human OX2R
# Conditions: CHO, hOX2R IP-One; percentage of mean max effect of a reference compound at 1 uM with 100% activity
# Protocol: In atypical experiment, the OX1 and OX2 receptor agonist activity is determined in accordance with the following general experimental method. Chinese hamster ovary (CHO) cells expressing human OX1R and/or the human OX2R were grown in Iscove's modified DMEM containing glutaMAX™, 1% G418, 100 U/mL penicillin, 100 μg/mL streptomycin and 10% heat-inactivated qualified fetal bovine serum (FBS). […] During this incubation, IP-one detection reagents were prepared (38:1:1 lysis buffer:D2:AB-cryptate reagents).
# For each compound, data were fit to a four parameter logistic fit (ActivityBase software) and the EC50 was reported as the inflection point of the resulting curve.
row,Compound,Emax [%]
1,"C[C@@H]1C[C@H](NS(C)(=O)=O)[C@@H]2COC3CCC(CC3)c3ccccc3/C=C/OC(=O)N12 [Example 2, N-((2^1R,2^4R,5^2R,5^3S,5^5R,E)-5^5-methyl-6-oxo-3,7-dioxa-5(2,1)-pyrrolidina-1(1,2)-benzena-2(1,4)-cyclohexanacyclonaphan-8-en-5^3-yl)methanesulfonamide]",102
2,"COC[C@@H]1C[C@H](NS(C)(=O)=O)[C@@H]2COC3CCC(CC3)c3cccc(F)c3/C=C/OC(=O)N12 [Example 3, N-((2^1R,2^4R,5^2R,5^3S,5^5S,E)-1^3-fluoro-5^5-(methoxymethyl)-6-oxo-3,7-dioxa-5(2,1)-pyrrolidina-1(1,2)-benzena-2(1,4)-cyclohexanacyclonaphan-8-en-5^3-yl)methanesulfonamide]",99.5
3,"COC[C@@H]1C[C@H](NS(C)(=O)=O)[C@@H]2COC3CCC(CC3)c3cccc(F)c3CCOC(=O)N12 [Example 6, N-((2^1R,2^4R,5^2R,5^3S, 5^5S)-1^3-fluoro-5^5-(methoxymethyl)-6-oxo-3,7-dioxa-5(2,1)-pyrrolidina-1(1,2)-benzena-2(1,4)-cyclo-hexanacyclonaphane-5^3-yl)methane sulfonamide]",100
4,"CN(C)S(=O)(=O)N[C@H]1CCN2C(=O)CCCCOc3cccc(c3)[C@H]3CC[C@H](CC3)OC[C@@H]12 [Example 7, N′-((2^1S,2^4S,5^2R,5^3S)-6-oxo-3,11-dioxa-5(2,1)-pyrrolidina-1(1,3)-benzena-2(1,4)-cyclohexanacycloundecaphane-5^3-yl)-N,N-dimethyl-sulfamide]",104
5,"C[C@@H]1C[C@H](NS(=O)(=O)N(C)C)[C@@H]2COC3CCC(CC3)c3cccc(c3)OCCCCCC(=O)N12 [Example 8, N′-((2^1S,2^4S,5^2R,5^3S,5^5R)-5^5-methyl-6-oxo-3,12-dioxa-5(2,1)-pyrrolidina-1(1,3)-benzena-2(1,4)-cyclohexanacyclododecaphane-5^3-yl)-N,N-dimethyl-sulfamide]",100
6,"C[C@@H]1C[C@H](NS(=O)(=O)N(C)C)[C@@H]2COC3CCC(CC3)c3cccc(c3)OCCC=CC(=O)N12 [Example 9, N′-((2^1S,2^4S,5^2R,5^3S, 5^5R)-5^5-methyl-6-oxo-3,11-dioxa-5(2,1)-pyrrolidina-1(1,3)-benzena-2(1,4)-cyclohexanacycloundecaphan-7-en-5^3-yl)-N,N-dimethyl-sulfamide]",100
7,"C[C@@H]1C[C@H](NS(=O)(=O)N(C)C)[C@@H]2COC3CCC(CC3)c3cccc(c3)OCCCCC(=O)N12 [Example 10, N′-((2^1S,2^4S,5^2R,5^3S, 5^5R)-5^5-methyl-6-oxo-3,11-dioxa-5(2,1)-pyrrolidina-1(1,3)-benzena-2(1,4)-cyclohexanacycloundecaphane-5^3-yl)-N,N-dimethyl-sulfamide]",101
8,"C[C@@H]1C[C@H](NS(=O)(=O)N(C)C)[C@@H]2CO[C@H]3CC[C@H](CC3)c3cccc(c3)CCCCCC(=O)N12 [Example 12, N′-((2^1S,2^4S,5^2R,5^3S,5^5R)-5^5-methyl-6-oxo-3-oxa-5(2,1)-pyrrolidina-1(1,3)-benzena-2(1,4)cyclohexanacycloundecaphane-5^3-yl)-N,N-dimethyl-sulfamide]",101
9,"CN(C)S(=O)(=O)N[C@H]1CCN2C(=O)OCCCOc3cccc(c3)[C@H]3CC[C@H](CC3)OC[C@@H]12 [Example 16, N′-((2^1S,2^4S, 5^2R,5^3S)-6-oxo-3,7,11-trioxa-5(2,1)-pyrrolidina-1(1,3)-benzena-2(1,4)-cyclohexana-cyclounde-caphane-5^3-yl)-N,N-dimethyl-sulfamide]",99.1
10,"C[C@@H]1C[C@H](NS(C)(=O)=O)C2COC3CCC(CC3)c3cccc(c3)OCCOC(=O)N21 (stereo partly shown) [Example 17, N-((2^1S,2^4S, 5^2R,5^3S,5^5R)-5^5-methyl-6-oxo-3,7,10-trioxa-5(2,1)-pyrrolidina-1(1,3)-benzena-2(1,4)-cyclohexana-cyclodecaphane-5^3-yl) methanesulfonamide]",100
11,"C[C@@H]1C[C@H](NS(C)(=O)=O)C2COC3CCC(CC3)c3cccc(c3)OCCCOC(=O)N21 (stereo partly shown) [Example 18, N-((2^1S,2^4S, 5^2R,5^3S,5^5R)-5^5-methyl-6-oxo-3,7,11-trioxa-5(2,1)-pyrrolidina-1(1,3)-benzena-2(1,4)-cyclohexana-cyclounde-caphane-5^3-yl) methanesulfonamide]",100
12,"C[C@@H]1C[C@H](NS(C)(=O)=O)C2COC3CCC(CC3)c3cccc(c3)OCCCCC(=O)N21 (stereo partly shown) [Example 19, N-((2^1S,2^4S, 5^2R,5^3S,5^5R)-5^5-methyl-6-oxo-3,11-dioxa-5(2,1)-pyrrolidina-1(1,3)-benzena-2(1,4)-cyclohexana-cyclounde-caphane-5^3-yl) methanesulfonamide]",101
13,"C[C@@H]1C[C@H](NS(C)(=O)=O)C2COC3CCC(CC3)c3cccc(c3)OCCCC(=O)N21 (stereo partly shown) [Example 20, N-((2^1S,2^4S, 5^2R,5^3S,5^5R)-5^5-methyl-6-oxo-3,10-dioxa-5(2,1)-pyrrolidina-1(1,3)-benzena-2(1,4)-cyclohexana-cyclodecaphane-5^3-yl) methanesulfonamide]",101

# The next lines start with the values.
row,Emax [%],Compound
1,101,"C[C@@H]1C[C@H](NS(=O)(=O)N(C)C)[C@@H]2COC3CCC(CC3)c3ccccc3CCOC(=O)N12 [Example 4, N′-((2′R,2^4R,5^2R,5^3S,5^5R)-5^5-methyl-6-oxo-3,7-dioxa-5(2,1)-pyrrolidina-1(1,2)-benzena-2(1,4)-cyclohexanacyclononaphane-5^3-yl)-N,N-dimethyl-sulfamide]"
2,100,"C[C@@H]1C[C@H](NS(C)(=O)=O)[C@@H]2COC3CCC(CC3)c3ccccc3CCOC(=O)N12 [Example 5, N-((2^1R,2^4R,5^2R,5^3S, 5^5R)-5^5-methyl-6-oxo-3,7-dioxa-5(2,1)-pyrrolidina-1(1,2)-benzena-2(1,4)-cyclo-hexanacyclonaphane-5^3-yl)methane sulfonamide]"
3,101,"C[C@@H]1C[C@H](NS(=O)(=O)N(C)C)[C@@H]2COC3CCC(CC3)c3cccc(c3)OCCCCOC(=O)N12 [Example 11, N′-((2^1S,2^4S,5^2R,5^3S,5^5R)-5^5-methyl-6-oxo-3,7,12-trioxa-5(2,1)-pyrrolidina-1(1,3)-benzena-2(1,4)-cyclohexanacyclododecaphane-5^3-yl)-N,N-dimethyl-sulfamide]"
4,100,"C[C@@H]1C[C@H](NS(=O)(=O)N(C)C)C2COC3CCC(CC3)c3cccc(c3)OCCCC(=O)N21 (stereo partly shown) [Example 14, N′-((2^1S,2^4S,5^2R, 5^3S,5^5R)-5^5-methyl-6-oxo-3,10-dioxa-5(2,1)-pyrrolidina-1(1,3)-benzena-2(1,4)-cyclohexana-cyclodecaphane-5^3-yl)-N,N-methyl-sulfamide]"

# Same assay, conditions: hOX2R IP-One; percentage of mean max effect of a reference compound at 1 uM with 100% activity
row,Compound,Emax (%)
1,"CS(=O)(=O)NC1CCCN2C(=O)CCCOc3cccc(c3)C3CCC(C3)OCC12 (single isomer, unassigned) [Example 34, N-((2^1S,2^3R,5^2R,5^3S)-6-oxo-3,10-dioxa-5(2,1)-piperidina-1(1,3)-benzena-2(1,3)-cyclopentanacyclodecaphane-5^3-yl)methanesulfonamide]",5.0
2,"CS(=O)(=O)NC1CCCN2C(=O)CCCOc3cccc(c3)C3CCC(C3)OCC12 (single isomer, unassigned) [Example 35, N-((2^1S,2^3R,5^2R,5^3S)-6-oxo-3,10-dioxa-5(2,1)-piperidina-1(1,3)-benzena-2(1,3)-cyclopentanacyclodecaphane-5^3-yl)methanesulfonamide]",100.1
3,"CS(=O)(=O)NC1CCCN2C(=O)CCCOc3cccc(c3)C3CCC(C3)OCC12 (single isomer, unassigned) [Example 36, N-((2^1S,2^3R,5^2R,5^3S)-6-oxo-3,10-dioxa-5(2,1)-piperidina-1(1,3)-benzena-2(1,3)-cyclopentanacyclodecaphane-5^3-yl)methanesulfonamide]",103.3
4,"CN(C)S(=O)(=O)NC1CCN2C(=O)OCCCCc3cccc(c3)C3CCC(CC3)OCC12 (stereo not shown) [Example 21, N′-((2^1S,2^4S,5^2R,5^3S)-6-oxo-3,7-dioxa-5(2,1)-pyrrolidina-1(1,3)-benzena-2(1,4)-cyclohexanacycloundecaphane-5^3-yl)-N,N-dimethyl-sulfamide]",100.5

# The remaining lines, values ahead:
row,Emax (%),Compound
1,100.8,"CN(C)S(=O)(=O)NC1CCCN2C(=O)OCCc3ccccc3C3CCC(CC3)OCC12 (single isomer, unassigned) [Example 38, N′-((2^1S,2^4S,5^2R,5^3S)-6-oxo-3,7-dioxa-5(2,1)-piperidina-1(1,2)-benzena-2(1,4)-cyclohexanacyclononaphane-5^3-yl)-N,N-dimethyl-sulfamide]"
2,4.4,"CN(C)S(=O)(=O)NC1CCCN2C(=O)OCCc3ccccc3C3CCC(CC3)OCC12 (single isomer, unassigned) [Example 39, N′-((2^1S,2^4S,5^2R,5^3S)-6-oxo-3,7-dioxa-5(2,1)-piperidina-1(1,2)-benzena-2(1,4)-cyclohexanacyclononaphane-5^3-yl)-N,N-dimethyl-sulfamide]"
3,71.6,"CN(C)S(=O)(=O)NC1CCCN2C(=O)OCCc3ccccc3C3CCC(CC3)OCC12 (single isomer, unassigned) [Example 40, N′-((2^1S,2^4S,5^2R,5^3S)-6-oxo-3,7-dioxa-5(2,1)-piperidina-1(1,2)-benzena-2(1,4)-cyclohexanacyclononaphane-5^3-yl)-N,N-dimethyl-sulfamide]"
4,99.3,CC1CC(NS(=O)(=O)N(C)C)C2COC3CCC(CC3)c3cccc(c3)OCCCOC(=O)N12 (stereo not shown) [Example 13]
